According to US10813931B2, “Methods and compositions relating to the treatment of cancer” (THE BRIGHAM AND WOMEN'S HOSPITAL, INC., priority 2013, dated 2020):

How the values were obtained:
[1] = system: CD44, Src (Y527), PRAS40 T246, Hck; test: 4T-1 tumor tissue western blot / IHC of CD44 and kinase phosphorylation; format: in vivo, mouse; conditions: diminished by day 19
Method: 4-6 week old Balb/C mice (Charles River, Cambridge Mass.) were inoculated with 10^6 4 T-1 mouse mammary carcinoma cells in the left flank (Charles River, Cambridge Mass.). Mice identified with tumors were treated with docetaxel (DTX) or vehicle twice at 72 hour intervals at 10 mg/kg i.v. or 15 mg/kg i.p. and subsequently treated with dasatinib i.p. or nanoparticles i.v. 72 hours following the final DTX dose. Tumors were harvested at indicated time points and evaluated for protein phosphorylation and expression. Experimental detail provided in supplemental data.
1 million 4T-1 mouse mammary carcinoma cells suspended in 100 µL PBS were injected per left flank of 5-6 week old Balb/C (Charles River, Wilmington Mass.). DTX was dissolved in pure Ethanol at a concentration of 50 mg/ml mixed 1:1 with Polysorbate 80 (Tween 80) and brought to a final working concentration with 5% glucose in PBS. Once Tumors became palpable (˜100 mm^3), DTX or vehicle treatments were administered at 100 μL volumes. Dasatinib was dissolved in DMSO to working concentration and delivered as 50 μL injections on indicated days, 50 µL DMSO used as a control in these studies. Tumor volumes were measured by a third party unaware of treatment conditions using digital calipers (Starlett, Athol, Mass.), volumes were assessed by the following formula: (Width×Width×length)/2 and expressed as relative volume increase from day 1. Tumor homogenate was prepared by homogenization of equal weight tissue sections incubated in 3×RIPA buffer containing 2× protease/phosphatase inhibitor cocktail (Thermo Fisher, Waltham, Mass.).
Cells were generated as described above and plated in 4 chamber glass slides (BD Biosciences, San Jose Calif.) at a concentration of 100,000 cells/ml. Following treatments, cells were washed in PBS and fixed in 4% Paraformaldehyde for 30 minutes. […] Blocking was performed in 10% (v/v) Goat serum in PBS. The cells were labeled with the indicated primary antibodies at 1:100 and tagged with FITC or unconjugated followed by a secondary antibody conjugated with Alexa Fluor 488 or Alexa Fluor 594 (Invitrogen Carlsbad Calif.) at 1:250 were added 24 hours later and incubated for 90 minutes at room temperature in blocking buffer and masked with DAPI-containing hard-set mounting medium (Vector Laboratories, Burlingame Calif.). Bright field and fluorescent images were obtained using three channels on a NIKON Eclipse TI-U microscope with a 20×ELDW, 10× or 40× Plan-Apo objective lens (Nikon, Melville N.Y.). […] For histological quantification, IHC were scored blindly by a clinical pathologist based on number of cells which stain for the target protein (1-4) and multiplied by the intensity of staining as a subjective percentile. This value was expressed as IHC score to quantify the level of staining. […]

[2] = system: MDA-MB-468 (468) cell line; test: CD44/CD24 surface expression by FACS in 468 cells; format: cell-based, human
Method: MDA-MB-231, MDA-MB-468 were purchased from ATCC. For acute treatments, cells were plated at a density of 0.5-1×10^5 cells/ml and allowed to adhere for 24-48 hr. when cells reached ˜70% confluency they were treated with antitubulins at indicated concentrations for 4-24 hours and utilized for subsequent assays. To generate chemotherapy tolerant subset, cells were treated with indicated concentrations of chemotherapy (48). Following washes with PBS, adherent cells were trypsinized and re-plated at a density of 1.5-2×10^5 cells/ml and cultured in serum-containing medium. […]
Cells were cultured as indicated and fixed with 4% paraformaldehyde in PBS for 30 min at RT and blocked in 10% goat serum (v/v). Following PBS washes, cells were incubated with indicated antibodies for 60 minutes at room temperature or overnight at 4 C and analyzed by FACS (Accuri cyomteters Inc. Ann Arbor, Mich.). Cell cycle analyzed in propidium iodide solution following incubation in 70% Ethanol overnight at 4 C and following manufacturer protocol (Genscript USA Inc. Piscataway, N.J.). AnnexinV/PI was analyzed FACS following manufacturer protocol (BD, Ann Arbor Mich.). All FACS results were analyzed by FlowJo™ software following a rigorous doublet discrimination based on FSC:A vs. width as well as FSC:A vs. height (Tree Star Inc., Ashland Oreg.). […]

## CC(=O)O[C@@]12CO[C@@H]1C[C@H](O)[C@@]1(C)C(=O)[C@H](O)C3=C(C)[C@@H](OC(=O)[C@H](O)[C@@H](NC(=O)OC(C)(C)C)c4ccccc4)C[C@@](O)([C@@H](OC(=O)c4ccccc4)[C@H]21)C3(C)C [DTX, docetaxel]
[1]; DTX day 9 vs control
  Hck phosphorylation in tumor (IHC): markedly enhanced
  activated PRAS40 T246 in tumor: enhancement
  inhibitory residue of Src (Y527) phosphorylation in tumor: Reduction
[1]; DTX-treated day 9 vs control day 9
  CD44 expression in tumor tissue: significantly enhanced CD44 expression
[2]; 10 nM docetaxel, 24 h
  CD44/CD24 signature: induced a CD44^HI, CD24^+/HI signature
[2]; 24 hour incubation, 10 nM DTX
  CD44 surface expression: induction of CD44 was observed
